Measurements as given in US20230234969A1, “N-LINKED MACROCYCLIC 7-(PYRAZOL-5-YL)-INDOLE DERIVATIVES AS INHIBIORS OF MCL-1” (Janssen Pharmaceutica NV, priority 2020, published 2023).

Columns and labels:
[1] = target: Myeloid Cell Leukemia 1 (Mcl-1) (Homo sapiens, UniProt Q07820); test: Terbium labeled Mcl-1 HTRF binding assay, displacement of Cy5-labeled BIM BH3 peptide; details: 25 pM Tb-Mcl-1, 8 nM Cy5 Bim peptide, Ki=IC50/(1+[L]/Kd), [L]=8 nM, Kd=10 nM, 60 min room temperature, read-out: Tb-MCLl Ki
Protocol: Terbium labeled Myeloid Cell Leukemia 1 (Mcl-1) homogeneous time-resolved fluorescence (HTRF) binding assay utilizing the BIM BH3 peptide (H2N-(C/Cy5Mal) WIAQELRRIGDEFN-OH) as the binding partner for Mcl-1.
This assay evaluated inhibition of the BH3 domain: Mcl-1 interaction by measuring the displacement of Cy5-labeled BIM BH3 peptide (H2N—(C/Cy5Mal) WIAQELRRIGDEFN-OH) in the HTRF assay format.
The following assay and stock buffers were prepared for use in the assay: (a) Stock buffer: 10 mM Tris-HCl, pH=7.5+150 mM NaCl, filtered, sterilized, and stored at 4° C.; and (b) 1×assay buffer, where the following ingredients were added fresh to stock buffer: 2 mM dithiothreitol (DTT), 0.0025% Tween-20, 0.1 mg/mL bovine serum albumin (BSA). The 1×Tb-Mcl-1+Cy5 Bim peptide solution was prepared by diluting the protein stock solution using the 1×assay buffer (b) to 25 pM Tb-Mcl-1 and 8 nM Cy5 Bim peptide.
Using the Acoustic ECHO, 100 nL of 100×test compound(s) were dispensed into individual wells of a white 384-well Perkin Elmer Proxiplate, for a final compound concentration of 1× and final DMSO concentration of 1%. Inhibitor control and neutral control (NC, 100 nL of 100% DMSO) were stamped into columns 23 and 24 of assay plate, respectively. Into each well of the plate was then dispensed 10 μL of the 1×Tb-Mcl-1+Cy5 Bim peptide solution. The plate was centrifuged with a cover plate at 1000 rpm for 1 minute, then incubated for 60 minutes at room temperature with plates covered. The TR-FRET signal was read on an BMG PHERAStar FSX MicroPlate Reader at room temperature using the HTRF optic module (HTRF: excitation: 337 nm, light source: laser, emission A: 665 nm, emission B: 620 nm, integration start: 60 μs, integration time: 400 μs).
The BMG PHERAStar FSX MicroPlate Reader was used to measure fluorescence intensity at two emission wavelengths—665 nm and 620 nm—and report relative fluorescence units (RFU) for both emissions, as well as a ratio of the emissions (665 nm/620 nm)*10,000. The RFU values were normalized to percent inhibition as follows:
% inhibition=(((NC−IC)−(compound−IC))/(NC−IC))*100
where IC (inhibitor control, low signal)=mean signal of 1×Tb-MCl-1+Cy5 Bim peptide+inhibitor control or 100% inhibition of Mcl-1; NC (neutral control, high signal)=mean signal 1×Tb-MCl-1+Cy5 Bim peptide with DMSO only or 0% inhibition
An 11-point dose response curve was generated to determine IC50 values (using GenData) based on the following equation:
Y=Bottom+(Top−Bottom)/(1+10^((log IC50−X)*HillSlope))
where Y=% inhibition in the presence of X inhibitor concentration; Top=100% inhibition derived from the IC (mean signal of Mcl-1+inhibitor control); Bottom=0% inhibition derived from the NC (mean signal of Mcl-1+DMSO); Hillslope=Hill coefficient; and IC50=concentration of compound with 50% inhibition in relation to top/neutral control (NC).
In this assay [L]=8 nM and Kd=10 nM
Representative compounds of the present invention were tested according to the procedure as described above, with results as listed in the Table below (n.d. means not determined).

[2] = test system: MOLP-8 human multiple myeloma cell line; test: Caspase-Glo 3/7 assay in MOLP-8 cells (apoptosis induction); type: cell-based; details: MOLP8 cells, 2 hours incubation at 37° C.; averaged values over all runs on all batches
From the text: MCL-1 is a regulator of apoptosis and is highly over-expressed in tumor cells that escape cell death. The assay evaluates the cellular potency of small-molecule compounds targeting regulators of the apoptosis pathway, primarily MCL-1, Bfl-1, Bcl-2, and other proteins of the Bcl-2 family. Protein-protein inhibitors disrupting the interaction of anti-apoptotic regulators with BH3-domain proteins initiate apoptosis.
The Caspase-Glo® 3/7 Assay is a luminescent assay that measures caspase-3 and -7 activities in purified enzyme preparations or cultures of adherent or suspension cells. The assay provides a proluminescent caspase-3/7 substrate, which contains the tetrapeptide sequence DEVD. This substrate is cleaved to release aminoluciferin, a substrate of luciferase used in the production of light. Addition of the single Caspase-Glo® 3/7 Reagent in an “add-mix-measure” format results in cell lysis, followed by caspase cleavage of the substrate and generation of a “glow-type” luminescent signal.
This assay uses the MOLP-8 human multiple myeloma cell line, which is sensitive to MCL-1 inhibition.
Cell cultures were maintained between 0.2 and 2.0×10^6 cells/mL. The cells were harvested by collection in 50 mL conical tubes. The cells were then pelleted at 500 g for 5 mins before removing supernatant and resuspension in fresh pre-warmed culture medium. The cells were counted and diluted as needed.
The assay reagent was prepared by transferring the buffer solution to the substrate vial and mixing. The solution may be stored for up to 1 week at 4° C. with negligible loss of signal.
Compounds were delivered in assay-ready plates (Proxiplate) and stored at −20° C. Assays always include 1 reference compound plate containing reference compounds. The plates were spotted with 40 nL of compounds (0.5% DMSO final in cells; serial dilution; 30 μM highest conc. 1/3 dilution, 10 doses, duplicates). The compounds were used at room temperature and 4 μL of pre-warmed media was added to all wells except column 2 and 23. The negative control was prepared by adding 1% DMSO in media. The positive control was prepared by adding the appropriate positive control compound in final concentration of 60 μM in media. The plate was prepared by adding 4 μL negative control to column 23, 4 μL positive control to column 2 and 4 μL cell suspension to all wells in the plate. The plate with cells was then incubated at 37° C. for 2 hours. The assay signal reagent is the Caspase-Glo solution described above, and 8 μL was added to all wells. The plates were then sealed and measured after 30 minutes.
The activity of a test compound was calculated as percent change in apoptosis induction as follows:
[formula] % Effect (AC50)=100−((sample−LC)/(HC−LC))*100
% Control=(sample/HC)*100
% Control min=(sample−LC)/(HC−LC)*100

Myeloid Cell Leukemia 1 (Mcl-1), sequence (Q07820 whole entry): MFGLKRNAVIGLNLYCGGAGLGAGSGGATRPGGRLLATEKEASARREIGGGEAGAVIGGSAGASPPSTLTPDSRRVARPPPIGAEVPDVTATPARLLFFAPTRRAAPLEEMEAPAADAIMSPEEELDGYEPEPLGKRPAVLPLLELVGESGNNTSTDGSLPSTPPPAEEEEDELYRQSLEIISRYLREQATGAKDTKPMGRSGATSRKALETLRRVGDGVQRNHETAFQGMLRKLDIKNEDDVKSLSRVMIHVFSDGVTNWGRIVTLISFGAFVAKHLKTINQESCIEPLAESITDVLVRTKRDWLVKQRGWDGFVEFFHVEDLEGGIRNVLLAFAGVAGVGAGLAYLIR

SMILES: Cc1nn2c(c1C)-c1c(Cl)ccc3c(c(C(=O)O)n(C)c13)CCCOc1cc(cc3ccccc13)SCc1cc(nn1C)CCC2 (single isomer, unassigned) [Compound 1]
- Ki [1]: 0.09 nM
- AC50 [2]: 67 nM

SMILES: Cc1nn2c(c1C)-c1c(Cl)ccc3c(c(C(=O)O)n(C)c13)CCCOc1cc(cc3ccccc13)SCc1cc(nn1C)CCC2 (single isomer, unassigned) [Compound 2]
- Ki [1]: 3.21 nM
- AC50 [2]: 2710 nM

SMILES: CCn1c(C(=O)O)c2c3ccc(Cl)c(c31)-c1c(C)c(C)nn1CCCc1cc(n(C)n1)CCc1cc(c3ccc(F)cc3c1)OCCC2 (single isomer, unassigned) [Compound 3]
- Ki [1]: 0.043 nM
- AC50 [2]: 36 nM

SMILES: CCn1c(C(=O)O)c2c3ccc(Cl)c(c31)-c1c(C)c(C)nn1CCCc1cc(n(C)n1)CCc1cc(c3ccc(F)cc3c1)OCCC2 (single isomer, unassigned) [Compound 4]
- Ki [1]: 33.7 nM
- AC50 [2]: 13100 nM

SMILES: COCCOCCn1c(C(=O)O)c2c3ccc(Cl)c(c31)-c1c(C)c(C)nn1CCCc1cc(n(C)n1)CCc1cc(c3ccc(F)cc3c1)OCCC2 (single isomer, unassigned) [Compound 5]
- Ki [1]: 0.027 nM
- AC50 [2]: 27 nM

SMILES: COCCOCCn1c(C(=O)O)c2c3ccc(Cl)c(c31)-c1c(C)c(C)nn1CCCc1cc(n(C)n1)CCc1cc(c3ccc(F)cc3c1)OCCC2 (single isomer, unassigned) [Compound 6]
- Ki [1]: 1.93 nM
- AC50 [2]: 1930 nM

SMILES: CCn1c(C(=O)O)c2c3ccc(Cl)c(c31)-c1c(C)c(C)nn1CCCc1cc(n(CCN(C)C)n1)CCc1cc(c3ccc(F)cc3c1)OCCC2 (single isomer, unassigned) [Compound 7]
- Ki [1]: 0.052 nM
- AC50 [2]: 16 nM

SMILES: CCn1c(C(=O)O)c2c3ccc(Cl)c(c31)-c1c(C)c(C)nn1CCCc1cc(n(CCN(C)C)n1)CCc1cc(c3ccc(F)cc3c1)OCCC2 (single isomer, unassigned) [Compound 8]
- Ki [1]: 8.06 nM
- AC50 [2]: 1560 nM

SMILES: CCn1c(C(=O)O)c2c3ccc(Cl)c(c31)-c1c(C)c(C)nn1CCCc1cc(n(CCOC)n1)CCc1cc(c3ccc(F)cc3c1)OCCC2 (single isomer, unassigned) [Compound 9]
- Ki [1]: 0.061 nM
- AC50 [2]: 53 nM

SMILES: CCn1c(C(=O)O)c2c3ccc(Cl)c(c31)-c1c(C)c(C)nn1CCCc1cc(n(CCOC)n1)CCc1cc(c3ccc(F)cc3c1)OCCC2 (single isomer, unassigned) [Compound 10]
- Ki [1]: 3.06 nM
- AC50 [2]: 3060 nM
